Drawing on PubChem BioAssay (NCI), this text covers GI50 and TGI for seven compounds.

Molecules are shown by their SMILES.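 All cell lines were grown in 96-well plates and treated with compound for 48 hours. At the GI50, growth is halved. TGI: concentration producing complete growth inhibition.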

Common to all, as to assay: NCI anticancer screen, dose series, 48 h
Test [1] has as its system MOLT-4 leukemia.
The subject of test [2] is NCI-H23 lung.
Test [3] has as its system NCI-H522 lung.
For test [4], the system named is SNB-75 CNS.
Test [5] concerns HCT-15 colon.
In test [6] the test system is CCRF-CEM leukemia.
In test [7] the test system is TK-10 renal.
In test [8] the test system is NCI-H226 lung.
The subject of test [9] is SR leukemia.
Test [10] deals with MDA-MB-231 breast.

In the case of `CCN(CC)CCCC(C)Nc1cnc(C(=O)Nc2ccc(Cl)c3cccnc23)cn1` (centres undefined), the GI50 in test [1] was 1.33 µM; in test [2] it was 5.04 µM; in test [3], 2.07 µM; in test [4], 3.18 µM; in test [5] it was 2.29 µM; in test [6], 0.484 µM. Also, the GI50 in test [7] was 9.09 µM; in test [8] it was 4.73 µM; in [9], 1.18 µM; in [10] it was 1.68 µM. Besides, the TGI in test [1] amounted to 3.3 µM; in test [2], 19.6 µM; in test [3], 4.34 µM; in [4], 15.1 µM; in test [5], 6.3 µM; in test [6], 2.27 µM. The TGI in test [7] amounted to 21.9 µM; in test [8], 20.7 µM; in test [9] it was 4.12 µM; in test [10], 3.76 µM.

`CC[C@@H](C(=O)[C@@H](C)[C@@H](O)[C@H](C)[C@@H]1O[C@@H]([C@@H](CC)C(=O)O)CC[C@@H]1C)C1O[C@]2(C=CC(=O)[C@]3(CC[C@@](C)([C@H]4CC[C@](O)(CC)[C@H](C)O4)O3)O2)[C@H](C)C[C@@H]1C` (some centres undefined): the GI50 is 1.42 µM in test [1]; 0.0979 µM in test [2]; 0.052 µM in [3]; 1.21 µM in test [4]; 0.644 µM in [5]; 0.278 µM in test [6]. In addition, the GI50 was 2.08 µM in test [7], 1.06 µM in [8], 0.0969 µM in test [9] and 0.854 µM in test [10]. For the same compound, the TGI in test [1] was 6.3 µM; in test [2], 8.93 µM; in test [3] it was 3.64 µM; in test [4] it was 7.12 µM; in test [5] it was 14.3 µM; in test [6] it was 9.3 µM. The TGI was found to be 25.8 µM in test [7], 9.77 µM in test [8] and 6.01 µM in test [10].

Turning to `Cn1ccnc1C(=O)/C=C/c1ccc(C(=O)Nc2ccc(Cl)cc2)cc1`, the GI50 is 0.81 µM in test [1]; 1.25 µM in test [2]; 1.81 µM in test [3]; 0.615 µM in test [4]; 0.676 µM in test [5]; 0.783 µM in [6]. In addition, the GI50 in [7] is 0.973 µM; in [8], 3.11 µM; in [9] it was 0.255 µM; in test [10] it was 1.2 µM. Besides, the TGI in [1] was 2.43 µM; in [2] it was 7.62 µM; in test [3] it was 14 µM; in test [4] it was over 33.3 µM; in [5], 3.12 µM; in test [6] it was 2.71 µM. In addition, the TGI in test [7] was found to be 17.2 µM; in [8], 18 µM; in test [9], 1.56 µM; in test [10], 16.7 µM.

Take `COc1ccc2c(c1)c(-c1ccc(-c3cn(S(=O)(=O)c4ccccc4)c4ccc(OC)cc34)s1)cn2S(=O)(=O)c1ccccc1`: the GI50 in [1], in test [2], in test [3], in [4], in [5] and in test [6] was over 100 µM in each case. For the same compound, the GI50 in [7], in test [8], in [9] and in test [10] was over 100 µM throughout. The TGI in test [1], in test [2], in test [3], in test [4], in [5] and in [6] was over 100 µM throughout. In addition, the TGI in [7], in test [8], in test [9] and in [10] was over 100 µM each time.

For `CC(C)(C)NC(C1=CC(C)(C)c2ccccc2C1=O)c1ccccc1` (centres undefined), the GI50 in test [1] was 1.48 µM; in [2] it was 1.49 µM; in [3] it was 1.1 µM; in test [4], 1.02 µM; in [5], 1.29 µM; in test [6], 1.14 µM. For the same compound, the GI50 in test [7] was 1.75 µM; in test [8] it was 1.42 µM; in [9], 0.293 µM; in test [10], 1.58 µM. Moreover, the TGI is 4.6 µM in test [1]; 3.17 µM in test [2]; 2.41 µM in [3]; 2.57 µM in [4]; 2.68 µM in test [5]; 4.07 µM in test [6]. Further, the TGI in test [7] turned out to be 3.39 µM; in [8] it was 3.17 µM; in [9] it was 1.74 µM; in [10] it was 3.45 µM.

With `CC1=C[C@H]2c3c(c(O)c(O)c4oc5c(C)cccc5c(=O)c34)[C@H](c3cc(O)c(O)c4oc5c(C)cccc5c(=O)c34)[C@H]2C(C)(C)C1`, the GI50 is 1.06 µM in test [1]; 1.24 µM in test [2]; 1.97 µM in test [3]; 1.4 µM in test [4]; 1.29 µM in test [5]; 0.65 µM in test [6]. In addition, the GI50 was 2.51 µM in [7], 2.21 µM in test [8], 0.72 µM in [9] and 2.88 µM in test [10]. In addition, the TGI in [1] turned out to be 31 µM; in test [2], 3.42 µM; in [3], 4.29 µM; in test [4] it was 6.77 µM; in test [5] it was 10.9 µM; in test [6] it was 10.4 µM. In addition, the TGI was 11.7 µM in test [7], 5.99 µM in [8], over 100 µM in test [9] and 14.6 µM in test [10].

Turning to `CC(C)=CCC[C@H](C)[C@@H]1CC[C@]2(C)C3CC[C@]4(OC4(C)C)C(CCCO)[C@]3(C)CC[C@@]12C` (some centres undefined), the GI50 was 18.2 µM in test [1]; 18.7 µM in test [2]; 32.4 µM in test [3]; 29.8 µM in test [4]; 26.5 µM in test [5]; 25.2 µM in test [6]. The GI50 in [7] is 17.5 µM; in test [8], 10 µM; in test [9], 11.2 µM; in test [10], 20.5 µM. Moreover, the TGI in test [1] is 44.6 µM; in test [2], 40.2 µM; in test [3], over 100 µM; in [4] it was 58 µM; in [5] it was over 100 µM; in [6], 65.9 µM. In addition, the TGI in test [7] was found to be 38.2 µM; in test [8], 57.4 µM; in test [9], 28.1 µM; in test [10], 43.3 µM.
